Assay results as given in ChEMBL document CHEMBL1201862, “PubChem BioAssay data set” (2004).
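Test compounds were applied to cells in 96-well plates for 48 hours at 5 doses. GI50 = concentration required for 50% inhibition of growth.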 Active and inactive are the calls of the source. No stated cut-off is given here; in the data, active = GI50 up to about 1.1 µM and inactive = higher.

What was measured:
Test in all cases: growth of human tumour cells (NCI), 48 h
[1] = tested on: SF-539
[2] = tested on: SN12C
[3] = tested on: Malme-3M
[4] = tested on: DLD-1
[5] = tested on: HCT-15
[6] = tested on: IGROV-1
[7] = tested on: RXF 631
[8] = tested on: ACHN
[9] = tested on: NCI-H460
[10] = tested on: RPMI-8226
[11] = tested on: KM-20L2
[12] = tested on: LOX IMVI
[13] = tested on: OVCAR-3
[14] = tested on: HOP-92
[15] = tested on: HL-60
[16] = tested on: CAKI-1
[17] = tested on: SK-OV-3
[18] = tested on: OVCAR-8
[19] = tested on: NCI-H23
[20] = tested on: M14
[21] = tested on: NCI-H226
[22] = tested on: OVCAR-4
[23] = tested on: SK-MEL-28
[24] = tested on: HT-29
[25] = tested on: UO-31
[26] = tested on: UACC-257
[27] = tested on: M19-MEL
[28] = tested on: A549
[29] = tested on: OVCAR-5
[30] = tested on: HCT-116
[31] = tested on: K562
[32] = tested on: NCI-H522
[33] = tested on: SF-268
[34] = tested on: COLO 205
[35] = tested on: XF498
[36] = tested on: LXFL 529
[37] = tested on: U-251
[38] = tested on: SW-620
[39] = tested on: TK-10
[40] = tested on: MOLT-4
[41] = tested on: SK-MEL-5
[42] = tested on: 786-0
[43] = tested on: HOP-62
[44] = tested on: SR
[45] = tested on: SNB-19
[46] = tested on: CCRF-CEM
[47] = tested on: DMS-273
[48] = tested on: RXF 393
[49] = tested on: HCC 2998
[50] = tested on: UACC-62
[51] = tested on: KM12
[52] = tested on: SNB-75
[53] = tested on: SK-MEL-2
[54] = tested on: DMS-114
[55] = tested on: A498
[56] = tested on: SNB-78
[57] = tested on: HOP-18
[58] = tested on: EKVX
[59] = tested on: SF-295

CC(C)c1cc(C(C)C)c(S(=O)(=O)N=[N+]=[N-])c(C(C)C)c1
GI50 [1]: > 100 µM (inactive)
GI50 [2]: > 100 µM (inactive)
GI50 [3]: > 100 µM (inactive)
GI50 [4]: > 100 µM (inactive)
GI50 [5]: > 100 µM
GI50 [6]: > 100 µM (inactive)
GI50 [7]: 59.8 µM (inactive)
GI50 [8]: > 100 µM (inactive)
GI50 [9]: > 100 µM (inactive)
GI50 [10]: 18.7 µM (inactive)
GI50 [11]: > 100 µM (inactive)
GI50 [12]: 47 µM (inactive)
GI50 [13]: > 100 µM (inactive)
GI50 [14]: > 100 µM (inactive)
GI50 [15]: 22.9 µM (inactive)
GI50 [16]: > 100 µM (inactive)
GI50 [17]: > 100 µM (inactive)
GI50 [18]: > 100 µM (inactive)
GI50 [19]: > 100 µM (inactive)
GI50 [20]: > 100 µM (inactive)
GI50 [21]: > 100 µM (inactive)
GI50 [22]: 81.8 µM (inactive)
GI50 [23]: > 100 µM (inactive)
GI50 [24]: 46.6 µM (inactive)
GI50 [25]: > 100 µM (inactive)
GI50 [26]: > 100 µM (inactive)
GI50 [27]: 34.9 µM (inactive)
GI50 [28]: > 100 µM (inactive)
GI50 [29]: > 100 µM (inactive)
GI50 [30]: > 100 µM (inactive)
GI50 [31]: 87.5 µM (inactive)
GI50 [32]: > 100 µM (inactive)
GI50 [33]: 67.3 µM (inactive)
GI50 [34]: > 100 µM (inactive)
GI50 [35]: > 100 µM (inactive)
GI50 [36]: > 100 µM (inactive)
GI50 [37]: 44 µM (inactive)
GI50 [38]: > 100 µM (inactive)
GI50 [39]: > 100 µM (inactive)
GI50 [40]: 21.3 µM (inactive)
GI50 [41]: > 100 µM (inactive)
GI50 [42]: > 100 µM (inactive)
GI50 [43]: > 100 µM (inactive)
GI50 [44]: 31.6 µM (inactive)
GI50 [45]: > 100 µM (inactive)
GI50 [46]: 34.9 µM (inactive)
GI50 [47]: 94 µM (inactive)
GI50 [48]: 68.4 µM (inactive)
GI50 [49]: > 100 µM (inactive)
GI50 [50]: > 100 µM (inactive)
GI50 [51]: > 100 µM (inactive)
GI50 [52]: 23 µM (inactive)

Cc1ccc(NC(=O)c2c(C)nc(=O)n3c2N(/N=C/c2ccc(Cl)cc2)CC3)cc1
GI50 [1]: 11.9 µM (inactive)
GI50 [2]: 14.7 µM (inactive)
GI50 [53]: 18.7 µM (inactive)
GI50 [3]: 21.4 µM (inactive)
GI50 [4]: 16.6 µM (inactive)
GI50 [6]: 18.2 µM (inactive)
GI50 [7]: 14.7 µM (inactive)
GI50 [8]: 16.3 µM (inactive)
GI50 [10]: > 10 µM (inactive)
GI50 [14]: 20 µM (inactive)
GI50 [15]: 23.1 µM (inactive)
GI50 [16]: 18.2 µM (inactive)
GI50 [17]: 21.3 µM (inactive)
GI50 [19]: 14.2 µM (inactive)
GI50 [20]: 17.1 µM (inactive)
GI50 [21]: 16 µM (inactive)
GI50 [22]: 14.4 µM (inactive)
GI50 [23]: 16.3 µM (inactive)
GI50 [25]: 11.7 µM (inactive)
GI50 [27]: 19.9 µM (inactive)
GI50 [30]: 13.2 µM (inactive)
GI50 [31]: 26.7 µM (inactive)
GI50 [32]: 10.4 µM (inactive)
GI50 [54]: 16.5 µM (inactive)
GI50 [33]: 12.7 µM (inactive)
GI50 [34]: 21.7 µM (inactive)
GI50 [35]: 15.6 µM (inactive)
GI50 [55]: 15.9 µM (inactive)
GI50 [36]: 16.8 µM (inactive)
GI50 [40]: 23.8 µM (inactive)
GI50 [42]: 17.8 µM (inactive)
GI50 [43]: 18.7 µM (inactive)
GI50 [44]: 24.5 µM (inactive)
GI50 [56]: 19.8 µM (inactive)
GI50 [46]: 26.9 µM (inactive)
GI50 [47]: 19.2 µM (inactive)
GI50 [49]: 17.9 µM (inactive)
GI50 [50]: 13.4 µM (inactive)
GI50 [52]: 18.8 µM (inactive)

COc1cc(C(=O)C(CO)Oc2ccccc2OC)ccc1O (centres undefined)
GI50 [1]: > 100 µM (inactive)
GI50 [2]: > 100 µM (inactive)
GI50 [3]: > 100 µM (inactive)
GI50 [4]: > 100 µM (inactive)
GI50 [5]: > 100 µM
GI50 [6]: > 100 µM (inactive)
GI50 [7]: > 100 µM (inactive)
GI50 [8]: > 100 µM (inactive)
GI50 [9]: > 100 µM (inactive)
GI50 [11]: > 100 µM (inactive)
GI50 [13]: > 100 µM (inactive)
GI50 [14]: 88.7 µM (inactive)
GI50 [57]: > 100 µM (inactive)
GI50 [15]: > 100 µM (inactive)
GI50 [16]: > 100 µM (inactive)
GI50 [17]: > 100 µM (inactive)
GI50 [18]: > 100 µM (inactive)
GI50 [19]: > 100 µM (inactive)
GI50 [20]: > 100 µM (inactive)
GI50 [21]: > 100 µM (inactive)
GI50 [22]: > 100 µM (inactive)
GI50 [23]: > 100 µM (inactive)
GI50 [24]: > 100 µM (inactive)
GI50 [25]: > 100 µM (inactive)
GI50 [26]: > 100 µM (inactive)
GI50 [27]: > 100 µM (inactive)
GI50 [28]: > 100 µM (inactive)
GI50 [29]: > 100 µM (inactive)
GI50 [30]: > 100 µM (inactive)
GI50 [58]: > 100 µM (inactive)
GI50 [31]: 42.1 µM (inactive)
GI50 [32]: > 100 µM (inactive)
GI50 [54]: > 100 µM (inactive)
GI50 [33]: > 100 µM (inactive)
GI50 [34]: > 100 µM (inactive)
GI50 [59]: > 100 µM (inactive)
GI50 [36]: > 100 µM (inactive)
GI50 [37]: > 100 µM (inactive)
GI50 [38]: > 100 µM (inactive)
GI50 [39]: > 100 µM (inactive)
GI50 [40]: > 100 µM (inactive)
GI50 [41]: > 100 µM (inactive)
GI50 [42]: > 100 µM (inactive)
GI50 [43]: > 100 µM (inactive)
GI50 [44]: 34.9 µM (inactive)
GI50 [45]: > 100 µM (inactive)
GI50 [56]: > 100 µM (inactive)
GI50 [46]: > 100 µM (inactive)
GI50 [47]: > 100 µM (inactive)
GI50 [49]: > 100 µM (inactive)
GI50 [50]: > 100 µM (inactive)
GI50 [51]: > 100 µM (inactive)
GI50 [52]: 67 µM (inactive)
